Assay results: patent publication US11912668B2, “GCN2 and perk kinase inhibitors and methods of use thereof” (Deciphera Pharmaceuticals, LLC, priority 2020, dated 2024)

Legend:
PERK kinase = PERK kinase (Homo sapiens (Human), UniProt Q9NZJ5); assay: Biochemical assay for PERK (coupled pyruvate kinase/lactate dehydrogenase assay); conditions: 1 mM ATP, rate from 2-3 h time frame
Protocol: Activity of PERK kinase was determined spectroscopically using a coupled pyruvate kinase/lactate dehydrogenase assay that continuously monitors the ATP hydrolysis-dependent oxidation of NADH (e.g., Schindler et al. Science (2000) 289: 1938-1942). Assays were conducted in 384-well plates (100 μL final volume) using 10 nM PERK (from Beryllium), 0.25 mg/mL Myelin Basic Protein substrate, 1.5 units pyruvate kinase, 2.1 units lactate dehydrogenase, 1 mM phosphoenol pyruvate, 0.28 mM NADH and 1 mM ATP in assay buffer (100 mM Tris, pH 7.5, 15 mM MgCl2, 0.5 mM DTT, 0.004% (w/v) BSA, and 0.004% Triton X-100). Inhibition of PERK was measured by adding serial diluted test compound (final assay concentration of 1% DMSO). A decrease in absorption at 340 nm was monitored continuously for 6 hours at 30° C. on a multi-mode microplate reader (BioTek). The reaction rate was calculated using the 2-3 h time frame. The reaction rate at each concentration of compound was converted to percent inhibition using controls (i.e. reaction with no test compound and reaction with a known inhibitor) and IC50 values were calculated using software routines in Prism (GraphPad software).

GCN2 kinase = GCN2 kinase (Homo sapiens (Human), UniProt Q9P2K8); assay: Biochemical assay for GCN2 (TR-FRET kinase activity assay); conditions: 1 mM ATP, 3-hour incubation
Protocol: Activity of GCN2 kinase was determined using a TR-FRET kinase activity assay (e.g. Riddle et al. Analytical Biochemistry (2006) 356(1) 108-116). Assays were conducted in 384-well plates (13 μL assay volume) using 2 nM GCN2 (Carna Biosciences), 130 nM GFP-EIf2α (Invitrogen), 0.2 mg/mL E. coli tRNA (sigma) and 1 mM ATP in kinase buffer (Invitrogen). Inhibition of GCN2 was measured by adding serial diluted test compound (final assay concentration of 0.5% DMSO) followed by a 3-hour incubation. Tb-peIF2α (pSer52) antibody (Invitrogen) (2 nM final assay concentration) in kinase buffer containing ETDA (final assay concentration of 20 mM) was added. After a 60 min incubation at room temperature, TR-FRET was monitored using an excitation wavelength of 340 nm and emission wavelengths of 490 nm and 520 nm. The emission ratio (520/490) at each compound concentration of was converted to percent inhibition using controls (i.e. reaction with no test compound and reaction with a known inhibitor) and IC50 values were calculated by fitting a four-parameter sigmoidal curve to the data using Prism (GraphPad software).

Sequence of PERK kinase (Q9NZJ5 other isoform, or with tags, fused parts or gaps): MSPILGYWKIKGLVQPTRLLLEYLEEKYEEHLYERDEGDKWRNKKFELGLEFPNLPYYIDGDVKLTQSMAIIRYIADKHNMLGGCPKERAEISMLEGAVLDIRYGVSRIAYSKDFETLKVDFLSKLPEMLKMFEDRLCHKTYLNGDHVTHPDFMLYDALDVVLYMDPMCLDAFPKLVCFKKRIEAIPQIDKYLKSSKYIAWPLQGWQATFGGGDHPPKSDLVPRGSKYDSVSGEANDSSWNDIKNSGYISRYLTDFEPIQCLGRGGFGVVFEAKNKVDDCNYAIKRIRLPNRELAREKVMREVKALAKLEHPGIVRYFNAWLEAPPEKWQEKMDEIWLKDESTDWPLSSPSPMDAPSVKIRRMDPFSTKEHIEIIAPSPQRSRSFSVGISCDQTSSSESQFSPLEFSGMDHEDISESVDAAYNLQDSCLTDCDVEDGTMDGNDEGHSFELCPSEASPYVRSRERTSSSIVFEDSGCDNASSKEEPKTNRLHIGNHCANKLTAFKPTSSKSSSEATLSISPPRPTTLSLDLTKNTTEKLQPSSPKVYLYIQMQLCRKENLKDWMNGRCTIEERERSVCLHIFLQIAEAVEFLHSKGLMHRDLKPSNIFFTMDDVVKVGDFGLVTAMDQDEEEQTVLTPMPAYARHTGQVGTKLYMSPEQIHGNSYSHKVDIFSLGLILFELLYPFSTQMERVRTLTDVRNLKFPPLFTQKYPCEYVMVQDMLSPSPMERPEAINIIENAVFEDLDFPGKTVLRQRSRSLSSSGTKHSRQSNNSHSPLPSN
Sequence of GCN2 kinase (Q9P2K8 whole entry): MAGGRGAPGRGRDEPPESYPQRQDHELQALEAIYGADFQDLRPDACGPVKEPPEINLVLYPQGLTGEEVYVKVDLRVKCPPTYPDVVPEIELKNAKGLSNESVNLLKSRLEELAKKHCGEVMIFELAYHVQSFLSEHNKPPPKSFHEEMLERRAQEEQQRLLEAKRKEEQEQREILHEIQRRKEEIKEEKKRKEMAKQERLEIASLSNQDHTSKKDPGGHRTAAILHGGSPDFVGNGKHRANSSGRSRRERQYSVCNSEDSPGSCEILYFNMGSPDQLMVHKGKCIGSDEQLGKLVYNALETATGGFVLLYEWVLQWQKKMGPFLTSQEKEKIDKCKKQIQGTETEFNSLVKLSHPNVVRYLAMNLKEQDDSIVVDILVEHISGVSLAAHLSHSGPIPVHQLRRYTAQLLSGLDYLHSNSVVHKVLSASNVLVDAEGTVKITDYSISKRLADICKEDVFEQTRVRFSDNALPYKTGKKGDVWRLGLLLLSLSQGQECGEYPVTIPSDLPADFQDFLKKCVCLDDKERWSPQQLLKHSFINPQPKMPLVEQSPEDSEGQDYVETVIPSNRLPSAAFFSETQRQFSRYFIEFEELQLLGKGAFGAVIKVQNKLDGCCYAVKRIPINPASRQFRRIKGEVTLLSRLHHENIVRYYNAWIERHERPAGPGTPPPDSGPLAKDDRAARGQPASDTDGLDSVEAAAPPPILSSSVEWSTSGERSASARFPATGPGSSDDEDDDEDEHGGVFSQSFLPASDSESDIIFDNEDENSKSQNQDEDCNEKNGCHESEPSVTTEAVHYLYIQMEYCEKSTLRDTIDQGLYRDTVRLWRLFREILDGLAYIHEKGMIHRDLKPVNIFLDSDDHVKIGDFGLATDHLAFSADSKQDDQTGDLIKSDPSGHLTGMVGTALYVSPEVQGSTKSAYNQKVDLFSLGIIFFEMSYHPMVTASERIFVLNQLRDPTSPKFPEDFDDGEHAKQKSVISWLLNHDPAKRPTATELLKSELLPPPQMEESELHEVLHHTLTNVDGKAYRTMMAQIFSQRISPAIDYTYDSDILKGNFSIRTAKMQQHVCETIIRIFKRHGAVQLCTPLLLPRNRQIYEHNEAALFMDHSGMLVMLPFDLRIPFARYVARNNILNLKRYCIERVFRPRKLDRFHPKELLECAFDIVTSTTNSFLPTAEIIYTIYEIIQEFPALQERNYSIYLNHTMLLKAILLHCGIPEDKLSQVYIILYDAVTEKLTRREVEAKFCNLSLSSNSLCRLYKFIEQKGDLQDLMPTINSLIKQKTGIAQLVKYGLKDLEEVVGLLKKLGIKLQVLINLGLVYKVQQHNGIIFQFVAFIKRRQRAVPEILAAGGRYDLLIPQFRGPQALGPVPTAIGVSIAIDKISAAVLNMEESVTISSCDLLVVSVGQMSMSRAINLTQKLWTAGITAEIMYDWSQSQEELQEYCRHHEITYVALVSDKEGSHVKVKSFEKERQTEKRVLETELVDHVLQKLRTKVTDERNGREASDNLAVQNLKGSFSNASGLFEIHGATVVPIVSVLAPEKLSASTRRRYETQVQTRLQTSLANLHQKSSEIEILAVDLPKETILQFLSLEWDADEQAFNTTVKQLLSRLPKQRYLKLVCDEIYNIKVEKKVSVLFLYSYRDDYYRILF

CNc1ncc2cc(-c3ccc(F)c(NS(=O)(=O)c4cc(Cl)cnc4OC)c3)c(C)nc2n1 [Example 20]
IC50 (PERK kinase): 1 to 10 µM
IC50 (GCN2 kinase): 1 to 10 µM

CNc1ncc2cc(-c3cccc(NS(=O)(=O)c4ccc(Cl)nc4OC)c3F)c(NC)nc2n1 [Example 142]
IC50 (PERK kinase): 0.1 to 0.5 µM
IC50 (GCN2 kinase): 0.1 to 0.5 µM

CNc1ncc2cc(-c3cccc(NS(=O)(=O)c4cc(Cl)cnc4OC)c3F)c(OCCOC)nc2n1 [Example 147]
IC50 (PERK kinase): 0.1 to 0.5 µM
IC50 (GCN2 kinase): ≤ 0.1 µM

CNc1ncc2cc(-c3cccc(NS(=O)(=O)c4ncccc4OC)c3F)c(NC)nc2n1 [Example 166]
IC50 (PERK kinase): 1 to 10 µM
IC50 (GCN2 kinase): 1 to 10 µM

CNc1cc2ncc(-c3cc(F)cc(NS(=O)(=O)c4cc(Cl)cnc4OC)c3)cc2cn1 [Example 58]
IC50 (PERK kinase): 1 to 10 µM
IC50 (GCN2 kinase): 1 to 10 µM

CNc1ncc2cc(-c3cccc(NS(=O)(=O)c4cc(C(C)=O)ccc4Cl)c3F)c(NC)nc2n1 [Example 133]
IC50 (PERK kinase): 0.1 to 0.5 µM
IC50 (GCN2 kinase): 0.1 to 0.5 µM

CNc1cc2nc(C)c(-c3cc(NS(=O)(=O)c4cc(Cl)cnc4OC)ccc3C)cc2cn1 [Example 32]
IC50 (PERK kinase): ≤ 0.1 µM
IC50 (GCN2 kinase): ≤ 0.1 µM

CNc1ncc2cc(-c3cccc(NS(=O)(=O)c4cc(Cl)cnc4OC)c3)c(C)nc2n1 [Example 47]
IC50 (PERK kinase): 0.1 to 0.5 µM
IC50 (GCN2 kinase): ≤ 0.1 µM

CNc1ncc2cc(-c3cc(F)cc(NS(=O)(=O)c4cc(Cl)cnc4OC)c3)c(NC[C@H](C)OC)nc2n1 [Example 108]
IC50 (PERK kinase): 1 to 10 µM
IC50 (GCN2 kinase): 0.5 to 1 µM

COc1ncc(Cl)cc1S(=O)(=O)Nc1cccc(-c2ccc3cc(N)ncc3c2)c1F [Example 29]
IC50 (PERK kinase): ≤ 0.1 µM
IC50 (GCN2 kinase): 0.1 to 0.5 µM

CNc1ncc2cc(-c3cc(NS(=O)(=O)c4cc(Cl)cnc4OC)ccc3OC)c(C)nc2n1 [Example 82]
IC50 (PERK kinase): 1 to 10 µM
IC50 (GCN2 kinase): 1 to 10 µM

CNc1cc2nc(C)c(-c3cc(NS(=O)(=O)c4cc(Cl)cnc4OC)c(F)cc3F)cc2cn1 [Example 5, 5-chloro-N-(2,4-difluoro-5-(2-methyl-7-(methylamino)-1,6-naphthyridin-3-yl)phenyl)-2-methoxypyridine-3-sulfonamide]
IC50 (PERK kinase): 0.5 to 1 µM
IC50 (GCN2 kinase): 0.1 to 0.5 µM

CNc1ncc2cc(-c3cc(NS(=O)(=O)c4cc(Cl)cnc4OC)ccc3Cl)ccc2n1 [Example 69]
IC50 (PERK kinase): ≤ 0.1 µM
IC50 (GCN2 kinase): 0.1 to 0.5 µM

CNc1ncc2cc(-c3cccc(NS(=O)(=O)c4cc(Cl)cnc4OC)c3C)ccc2n1 [Example 52]
IC50 (PERK kinase): 0.1 to 0.5 µM
IC50 (GCN2 kinase): 0.1 to 0.5 µM

CNc1ncc2cc(-c3cc(NS(=O)(=O)c4cc(Cl)cc(Cl)c4)c(F)cc3C)c(C)nc2n1 [Example 75]
IC50 (PERK kinase): 0.1 to 0.5 µM
IC50 (GCN2 kinase): 0.5 to 1 µM

CNC(=O)c1cc(Cl)cc(S(=O)(=O)Nc2cccc(-c3cc4cnc(NC)nc4nc3NC)c2F)c1Cl [Example 170]
IC50 (PERK kinase): 1 to 10 µM
IC50 (GCN2 kinase): 1 to 10 µM

CNc1ncc2cc(-c3cc(NS(=O)(=O)c4cc(Cl)cnc4OC)ccc3C(F)(F)F)c(C)nc2n1 [Example 80]
IC50 (PERK kinase): 1 to 10 µM
IC50 (GCN2 kinase): 0.5 to 1 µM

CNc1ncc2cc(-c3cc(NS(=O)(=O)c4cncc(Cl)c4)c(F)cc3C)c(C)nc2n1 [Example 42]
IC50 (PERK kinase): 1 to 10 µM
IC50 (GCN2 kinase): 1 to 10 µM

CNc1ncc2cc(-c3cc(NS(=O)(=O)c4cc(Cl)cnc4OC)ccc3C(F)(F)F)ccc2n1 [Example 76]
IC50 (PERK kinase): 1 to 10 µM
IC50 (GCN2 kinase): 1 to 10 µM

CNc1ncc2cc(-c3cccc(NS(=O)(=O)c4ccc(Br)c(C(F)(F)F)c4)c3F)ccc2n1 [Example 71]
IC50 (PERK kinase): 1 to 10 µM
IC50 (GCN2 kinase): 1 to 10 µM

CNc1cc2nc(C)c(-c3cc(NS(=O)(=O)c4cc(Cl)cnc4OC)c(F)cc3Br)cc2cn1 [Example 18]
IC50 (PERK kinase): 1 to 10 µM
IC50 (GCN2 kinase): 0.5 to 1 µM

CNc1nc2nc(NC3CCC3)ncc2cc1-c1cccc(NS(=O)(=O)c2cc(Cl)cnc2OC)c1F [Example 118]
IC50 (PERK kinase): 0.1 to 0.5 µM
IC50 (GCN2 kinase): ≤ 0.1 µM

CNc1ncc2cc(-c3cc(NS(=O)(=O)c4cc(Cl)cnc4OC)c(F)cc3C)c(NC)nc2n1 [Example 10]
IC50 (PERK kinase): 1 to 10 µM
IC50 (GCN2 kinase): 0.5 to 1 µM

CNc1ncc2cc(-c3cccc(NS(=O)(=O)c4cc(Cl)cnc4OC)c3)ccc2n1 [Example 43]
IC50 (PERK kinase): 1 to 10 µM
IC50 (GCN2 kinase): 1 to 10 µM

CNc1ncc2cc(-c3cccc(NS(=O)(=O)c4cc(Br)cnc4OC)c3F)c(NC)nc2n1 [Example 169]
IC50 (PERK kinase): 0.1 to 0.5 µM
IC50 (GCN2 kinase): ≤ 0.1 µM

CNc1ncc2cc(-c3cc(F)cc(NS(=O)(=O)c4cc(Cl)cnc4OC)c3)c(NCCOC)nc2n1 [Example 105]
IC50 (PERK kinase): 1 to 10 µM
IC50 (GCN2 kinase): 0.1 to 0.5 µM

CNc1ncc2cc(-c3ccc(F)c(NS(=O)(=O)c4cc(Cl)cnc4OC)c3F)c(C)nc2n1 [Example 46]
IC50 (PERK kinase): 1 to 10 µM
IC50 (GCN2 kinase): 0.1 to 0.5 µM

CNc1ncc2cc(-c3cc(NS(=O)(=O)c4cc(Cl)cnc4OC)ccc3OC)ccc2n1 [Example 81]
IC50 (PERK kinase): 1 to 10 µM
IC50 (GCN2 kinase): 1 to 10 µM

CNc1ncc2cc(-c3cccc(NS(=O)(=O)c4cc(Cl)c[nH]c4=O)c3F)c(NC)nc2n1 [Example 160]
IC50 (PERK kinase): 1 to 10 µM
IC50 (GCN2 kinase): 0.5 to 1 µM

CNc1ncc2cc(-c3cccc(NS(=O)(=O)c4cc(C5CC5)cnc4OC)c3F)c(NC)nc2n1 [Example 153]
IC50 (PERK kinase): 0.1 to 0.5 µM
IC50 (GCN2 kinase): ≤ 0.1 µM

CNc1ncc2cc(-c3cc(NS(=O)(=O)c4cc(Cl)cnc4OC)cc(F)c3F)ccc2n1 [Example 55]
IC50 (PERK kinase): 0.1 to 0.5 µM
IC50 (GCN2 kinase): 0.5 to 1 µM

CNc1ncc2cc(-c3cccc(NS(=O)(=O)c4cc(Cl)cnc4OC4COC4)c3F)c(NC)nc2n1 [Example 125]
IC50 (PERK kinase): 0.5 to 1 µM
IC50 (GCN2 kinase): 0.1 to 0.5 µM

CNCCNc1nc2nc(NC)ncc2cc1-c1cccc(NS(=O)(=O)c2cc(Cl)cnc2OC)c1F [Example 101]
IC50 (PERK kinase): 1 to 10 µM
IC50 (GCN2 kinase): 0.1 to 0.5 µM

CNc1ncc2cc(-c3cc(NS(=O)(=O)c4cc(Cl)cnc4OC)ccn3)ccc2n1 [Example 163]
IC50 (PERK kinase): 1 to 10 µM
IC50 (GCN2 kinase): 1 to 10 µM

CNc1ncc2cc(-c3cc(NS(=O)(=O)c4cccnc4)c(F)cc3C)c(C)nc2n1 [Example 1, N-(2-fluoro-4-methyl-5-(7-methyl-2-(methylamino)pyrido[2,3-d]pyrimidin-6-yl)phenyl)pyridine-3-sulfonamide]
IC50 (PERK kinase): 1 to 10 µM
IC50 (GCN2 kinase): 1 to 10 µM

CNc1ncc2cc(-c3cccc(NS(=O)(=O)c4ccc(OC)c(Cl)c4)c3F)ccc2n1 [Example 70]
IC50 (PERK kinase): 0.1 to 0.5 µM
IC50 (GCN2 kinase): 1 to 10 µM

CNc1ncc2cc(-c3cc(NS(=O)(=O)c4cc(Cl)cnc4OC)c(F)cc3F)c(C)nc2n1 [Example 12]
IC50 (PERK kinase): 1 to 10 µM
IC50 (GCN2 kinase): 0.5 to 1 µM

CNc1ncc2cc(-c3cccc(NS(=O)(=O)c4ccc(OC)c(C)c4)c3F)ccc2n1 [Example 91]
IC50 (PERK kinase): 0.1 to 0.5 µM
IC50 (GCN2 kinase): 1 to 10 µM

CNc1nc2nc(NCC(F)(F)F)ncc2cc1-c1cccc(NS(=O)(=O)c2cc(Cl)cnc2OC)c1F [Example 116]
IC50 (PERK kinase): 0.1 to 0.5 µM
IC50 (GCN2 kinase): ≤ 0.1 µM

CNc1ncc2cc(-c3cc(NS(=O)(=O)c4cc(Cl)cnc4OC)c(F)cc3F)c(NC)nc2n1 [Example 13]
IC50 (PERK kinase): 1 to 10 µM
IC50 (GCN2 kinase): 0.5 to 1 µM

CNc1ncc2cc(-c3cc(F)cc(NS(=O)(=O)c4cc(Cl)cnc4OC)c3)c(NC[C@@H](C)OC)nc2n1 [Example 107]
IC50 (PERK kinase): 1 to 10 µM
IC50 (GCN2 kinase): 0.5 to 1 µM

CNc1ncc2cc(-c3cc(Cl)cc(NS(=O)(=O)c4cc(Cl)cnc4OC)c3)c(NC)nc2n1 [Example 94]
IC50 (PERK kinase): 1 to 10 µM
IC50 (GCN2 kinase): 0.5 to 1 µM

CNc1ncc2cc(-c3cccc(NS(=O)(=O)c4cc(Cl)cnc4OC)c3F)c(NC3COC3)nc2n1 [Example 98]
IC50 (PERK kinase): 0.5 to 1 µM
IC50 (GCN2 kinase): 0.1 to 0.5 µM

COc1cc(OC)c(S(=O)(=O)Nc2cccc(-c3cc4cnc(N)nc4nc3OC)c2F)cc1Cl [Example 126]
IC50 (PERK kinase): 0.5 to 1 µM
IC50 (GCN2 kinase): 1 to 10 µM

CNc1cc2nc(C)c(-c3ccc(F)c(NS(=O)(=O)c4cc(Cl)cnc4OC)c3)cc2cn1 [Example 7]
IC50 (PERK kinase): 0.1 to 0.5 µM
IC50 (GCN2 kinase): 0.5 to 1 µM

CNc1ncc2cc(-c3cc(F)cc(NS(=O)(=O)c4cc(Cl)cnc4OC)c3)c(OC)nc2n1 [Example 103]
IC50 (PERK kinase): 0.1 to 0.5 µM
IC50 (GCN2 kinase): 0.1 to 0.5 µM

CNc1ncc2cc(-c3cccc(NS(=O)(=O)c4cc(Cl)cnc4OC4CC4)c3F)c(NC)nc2n1 [Example 154]
IC50 (PERK kinase): 0.1 to 0.5 µM
IC50 (GCN2 kinase): 0.1 to 0.5 µM

CNc1nc2nc(NC3CCCC3)ncc2cc1-c1cccc(NS(=O)(=O)c2cc(Cl)cnc2OC)c1F [Example 119]
IC50 (PERK kinase): 0.1 to 0.5 µM
IC50 (GCN2 kinase): ≤ 0.1 µM

CNc1ncc2cc(-c3cc(NS(=O)(=O)c4cc(Cl)cnc4OC)cc(F)c3C)c(NC)nc2n1 [Example 34]
IC50 (PERK kinase): 0.1 to 0.5 µM
IC50 (GCN2 kinase): ≤ 0.1 µM

CNc1ncc2cc(-c3cccc(NS(=O)(=O)c4cc(F)cnc4OC)c3F)c(NC)nc2n1 [Example 122]
IC50 (PERK kinase): 0.1 to 0.5 µM
IC50 (GCN2 kinase): ≤ 0.1 µM

CNc1ncc2cc(-c3cc(NS(=O)(=O)c4cc(Cl)cnc4OC)ccc3F)ccc2n1 [Example 54]
IC50 (PERK kinase): 0.1 to 0.5 µM
IC50 (GCN2 kinase): 0.5 to 1 µM
